pIC50: −log10 of the molar value. “And” between values parts separate entries of the source, which are not always exact repeats. Equal entries are not always repeated.
Target: Sodium channel protein type 9 subunit alpha (Homo sapiens, UniProt Q15858)
Test: Compound effects were measured on a partially inactivated state of the sodium channel. Cells were clamped to a holding potential yielding 20 to 50% inactivation. To elicit sodium current, channels were activated by pulsing to -10 mV for 20 msec. This voltage protocol was repeated at a rate of 0.1 Hz throughout the experiment.
Type: cell-based, Sf9

Sodium channel protein type 9 subunit alpha, sequence (Q15858 whole entry): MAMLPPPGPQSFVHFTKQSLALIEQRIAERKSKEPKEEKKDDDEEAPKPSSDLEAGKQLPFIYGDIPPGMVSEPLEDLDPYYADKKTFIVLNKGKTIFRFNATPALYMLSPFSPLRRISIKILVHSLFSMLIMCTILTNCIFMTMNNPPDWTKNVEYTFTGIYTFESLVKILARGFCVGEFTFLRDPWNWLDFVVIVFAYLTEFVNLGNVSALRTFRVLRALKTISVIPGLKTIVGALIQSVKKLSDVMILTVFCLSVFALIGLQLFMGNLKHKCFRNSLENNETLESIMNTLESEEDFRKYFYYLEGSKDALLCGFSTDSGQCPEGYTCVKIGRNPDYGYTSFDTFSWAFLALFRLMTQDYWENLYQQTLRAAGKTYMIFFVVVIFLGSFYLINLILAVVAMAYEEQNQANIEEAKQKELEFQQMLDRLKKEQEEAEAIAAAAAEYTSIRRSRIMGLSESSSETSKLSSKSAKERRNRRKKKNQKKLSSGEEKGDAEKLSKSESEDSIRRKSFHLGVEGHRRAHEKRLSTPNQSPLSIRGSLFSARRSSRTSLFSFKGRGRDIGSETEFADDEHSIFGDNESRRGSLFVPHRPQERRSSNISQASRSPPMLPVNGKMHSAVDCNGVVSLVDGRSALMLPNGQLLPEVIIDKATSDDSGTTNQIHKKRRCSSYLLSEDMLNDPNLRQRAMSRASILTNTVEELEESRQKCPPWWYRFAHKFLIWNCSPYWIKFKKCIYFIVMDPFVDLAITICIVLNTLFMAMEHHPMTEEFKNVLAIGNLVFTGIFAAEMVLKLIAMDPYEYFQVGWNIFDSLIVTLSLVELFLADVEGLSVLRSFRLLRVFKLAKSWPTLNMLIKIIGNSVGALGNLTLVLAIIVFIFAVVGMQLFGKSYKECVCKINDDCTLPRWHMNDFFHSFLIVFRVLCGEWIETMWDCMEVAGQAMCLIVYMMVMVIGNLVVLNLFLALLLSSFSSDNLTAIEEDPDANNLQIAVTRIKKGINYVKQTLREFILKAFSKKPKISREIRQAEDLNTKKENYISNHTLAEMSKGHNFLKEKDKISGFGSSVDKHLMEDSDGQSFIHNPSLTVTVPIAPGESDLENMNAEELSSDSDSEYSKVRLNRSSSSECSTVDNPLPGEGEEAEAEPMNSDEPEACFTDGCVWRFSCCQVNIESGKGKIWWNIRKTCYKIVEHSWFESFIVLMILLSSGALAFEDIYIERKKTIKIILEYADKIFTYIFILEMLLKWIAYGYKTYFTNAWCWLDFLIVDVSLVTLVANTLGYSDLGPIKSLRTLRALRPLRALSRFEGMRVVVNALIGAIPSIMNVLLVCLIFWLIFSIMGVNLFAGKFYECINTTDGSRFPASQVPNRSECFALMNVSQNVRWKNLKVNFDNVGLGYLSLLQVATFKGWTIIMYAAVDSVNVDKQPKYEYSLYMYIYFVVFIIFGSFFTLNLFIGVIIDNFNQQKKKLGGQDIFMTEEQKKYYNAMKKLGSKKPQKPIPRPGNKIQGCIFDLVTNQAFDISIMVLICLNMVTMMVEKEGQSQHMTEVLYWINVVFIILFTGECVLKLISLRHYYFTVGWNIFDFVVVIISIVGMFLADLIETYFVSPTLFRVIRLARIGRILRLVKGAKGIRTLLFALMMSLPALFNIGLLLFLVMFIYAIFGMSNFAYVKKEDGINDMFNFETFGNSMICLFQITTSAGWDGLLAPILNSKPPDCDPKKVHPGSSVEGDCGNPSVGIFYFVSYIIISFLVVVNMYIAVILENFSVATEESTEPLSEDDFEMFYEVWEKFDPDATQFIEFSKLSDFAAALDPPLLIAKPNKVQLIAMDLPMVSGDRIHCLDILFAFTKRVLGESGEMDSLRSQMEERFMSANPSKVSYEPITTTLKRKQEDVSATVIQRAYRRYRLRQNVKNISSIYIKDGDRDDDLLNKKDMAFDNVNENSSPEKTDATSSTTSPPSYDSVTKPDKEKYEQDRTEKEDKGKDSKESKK

Point of comparison: `COc1cc(OC)cc(-c2cc(OC)c(-n3c(=O)ccc4cc(S(=O)(=O)Nc5ncc(F)cn5)ccc43)cc2F)c1`, pIC50 7.48. Against it:
- COc1cc(-c2cc(Cl)ccn2)c(F)cc1-n1c(=O)ccc2cc(S(=O)(=O)Nc3ccon3)ccc21 — 0.45 log units lower, 7.03
- COc1cc(-c2ccc(F)cc2)c(F)cc1-n1c(=O)ccc2cc(S(=O)(=O)Nc3ncccn3)ccc21 — 0.77 log units lower, 6.71
- COc1cc(-c2cccc(OC(F)F)c2)c(F)cc1-n1c(=O)ccc2cc(S(=O)(=O)Nc3ncccn3)ccc21 — within 0.2 log units, 7.64
- COc1cc(-c2ccc(Cl)cc2)ccc1-n1c(=O)ccc2cc(S(=O)(=O)Nc3ncccn3)ccc21 — 0.46 log units lower, 7.02
- COc1cc(-c2cccc(C(F)(F)F)c2)c(F)cc1-n1c(=O)ccc2cc(S(=O)(=O)Nc3ncccn3)ccc21 — 0.52 log units higher, 8.00
- COc1cc(-c2cccc(C(F)(F)F)c2)c(F)cc1-n1c(=O)ccc2cc(S(=O)(=O)Nc3cc(C)ncn3)ccc21 — 0.52 log units higher, 8.00
- COc1cc(Br)c(F)cc1-n1c(=O)ccc2cc(S(=O)(=O)Nc3ccnc(C)n3)ccc21 — 1.96 log units lower, 5.52
- COc1cc(-c2cc(Cl)cnc2OC)c(F)cc1-n1c(=O)ccc2cc(S(=O)(=O)Nc3ncccn3)ccc21 — 0.34 log units lower, 7.14
- COc1cc(-c2ccc(F)c(F)c2)ccc1-n1c(=O)ccc2cc(S(=O)(=O)Nc3ncc(F)cn3)ccc21 — 0.36 log units lower, 7.12
- COc1cc(-c2cc(F)cc(C(F)(F)F)c2)ccc1-n1c(=O)ccc2cc(S(=O)(=O)Nc3ncc(F)cn3)ccc21 — within 0.2 log units, 7.46
- COc1cc(-c2ccc(Cl)c(C)c2)c(F)cc1-n1c(=O)ccc2cc(S(=O)(=O)Nc3ccncn3)ccc21 — 0.82 log units higher, 8.30
- COc1cc(-c2cc(OC)c(-n3c(=O)ccc4cc(S(=O)(=O)Nc5cccnn5)ccc43)cc2F)ccc1Cl — 0.52 log units higher, 8.00
- COc1cc(C#CC2CCCC2)c(F)cc1-n1c(=O)ccc2cc(S(=O)(=O)Nc3cccnn3)ccc21 — 0.62 log units higher, 8.10
- COc1cc(OC)cc(-c2cc(OC)c(-n3c(=O)ccc4cc(S(=O)(=O)Nc5ccon5)ccc43)cc2F)c1 — 0.44 log units higher, 7.92
- COc1cc(-c2ccc(Cl)c(C)c2)ccc1-n1c(=O)ccc2cc(S(=O)(=O)Nc3ncon3)ccc21 — within 0.2 log units, 7.52
- COc1cc(-c2ccc(-n3c(=O)ccc4cc(S(=O)(=O)Nc5ccnc(C)n5)ccc43)c(OC)c2)ccc1C — 0.95 log units lower, 6.53
- COc1cc(-c2ccc(-n3c(=O)ccc4cc(S(=O)(=O)Nc5cc(C)ncn5)ccc43)c(OC)c2)ccc1C — 0.78 log units lower, 6.70
- COc1cc(C2CCOCC2)c(F)cc1-n1c(=O)ccc2cc(S(=O)(=O)Nc3ccon3)ccc21 — 1.97 log units lower, 5.51
- COc1cc(-c2cc(C)cc(F)c2)c(F)cc1-n1c(=O)ccc2cc(S(=O)(=O)Nc3ccon3)ccc21 — 0.62 log units higher, 8.10
- COc1cc(-c2ccc(Cl)c(C)c2)ccc1-n1c(=O)ccc2cc(S(=O)(=O)Nc3ncco3)ccc21 — 0.57 log units higher, 8.05
- COc1cc(Br)c(F)cc1-n1c(=O)ccc2cc(S(=O)(=O)Nc3cc(C)ncn3)ccc21 — 1.50 log units lower, 5.98
- COc1cc(C(F)(F)F)c(Cl)cc1-n1c(=O)ccc2cc(S(=O)(=O)Nc3ccncn3)ccc21 — 0.57 log units lower, 6.91
- CCc1nccc(NS(=O)(=O)c2ccc3c(ccc(=O)n3-c3cc(F)c(Br)cc3OC)c2)n1 — 0.57 log units lower, 6.91
- COc1ccc(-c2ccc(F)nc2)cc1-n1c(=O)ccc2cc(S(=O)(=O)Nc3ccon3)ccc21 — 1.44 log units lower, 6.04
- COc1cc(Br)c(F)cc1-n1c(=O)ccc2cc(S(=O)(=O)Nc3nccc(C)n3)ccc21 — 1.67 log units lower, 5.81
- CCc1nccc(NS(=O)(=O)c2ccc3c(ccc(=O)n3-c3cc(F)c(-c4cc(F)cc(Cl)c4)cc3OC)c2)n1 — 2.38 log units lower, 5.10
- COc1cc(CC2CCCCC2)c(F)cc1-n1c(=O)ccc2cc(S(=O)(=O)Nc3ncccn3)ccc21 — within 0.2 log units, 7.41
- COc1cc(-c2cccc(OC(F)F)c2)c(F)cc1-n1c(=O)ccc2cc(S(=O)(=O)Nc3ccnc(C)n3)ccc21 — within 0.2 log units, 7.55
- COc1ccc(CC(=O)OC(C)(C)C)cc1-n1c(=O)ccc2cc(S(=O)(=O)Nc3ccon3)ccc21 — 1.78 log units lower, 5.70
- COc1cc(-c2cccc(C(F)F)c2)c(F)cc1-n1c(=O)ccc2cc(S(=O)(=O)Nc3ccon3)ccc21 — within 0.2 log units, 7.46
- COc1cc(-c2ccc(Cl)cc2)ccc1-n1c(=O)ccc2cc(S(=O)(=O)Nc3ccon3)ccc21 — within 0.2 log units, 7.66
- COc1cc(-c2ccc(-n3c(=O)ccc4cc(S(=O)(=O)Nc5ncc(F)cn5)ccc43)c(OC)c2)ccc1C — 0.70 log units lower, 6.78
- COc1cc(Cl)cc(-c2cc(OC)c(-n3c(=O)ccc4cc(S(=O)(=O)Nc5ncccn5)ccc43)cc2C)c1 — 0.82 log units higher, 8.30
- COc1cc(-c2ccc(F)c(F)c2)c(F)cc1-n1c(=O)ccc2cc(S(=O)(=O)Nc3cccnn3)ccc21 — 0.32 log units higher, 7.80
- COc1cc(Cl)cc(-c2ccc(-n3c(=O)ccc4cc(S(=O)(=O)Nc5ccon5)ccc43)c(OC)c2)c1 — 0.52 log units higher, 8.00
- COc1ccc(-c2cc(OC)c(-n3c(=O)ccc4cc(S(=O)(=O)Nc5ccon5)ccc43)cc2F)cc1Cl — within 0.2 log units, 7.60
- COc1cc(NS(=O)(=O)c2ccc3c(ccc(=O)n3-c3cc(F)c(Br)cc3OC)c2)ncn1 — 0.97 log units lower, 6.51
- COc1cc(CC2CCCC2)c(F)cc1-n1c(=O)ccc2cc(S(=O)(=O)Nc3ccon3)ccc21 — 0.48 log units higher, 7.96
- COc1cc(C#CC2(C)COC2)c(F)cc1-n1c(=O)ccc2cc(S(=O)(=O)Nc3ccon3)ccc21 — 1.67 log units lower, 5.81
- COc1cc(-c2cc(F)cc(OC(F)F)c2)c(F)cc1-n1c(=O)ccc2cc(S(=O)(=O)Nc3ccon3)ccc21 — 0.48 log units higher, 7.96
- COc1cc(Cl)cc(-c2ccc(-n3c(=O)cnc4cc(S(=O)(=O)Nc5ccon5)ccc43)c(OC)c2)c1 — 0.20 log units lower, 7.28
- COc1nc(OCC2CCCCC2)c(Cl)cc1-n1c(=O)ccc2cc(S(=O)(=O)Nc3ccon3)ccc21 — 0.20 log units lower, 7.28
- COc1cc(C#CC2CCCC2)c(F)cc1-n1c(=O)ccc2cc(S(=O)(=O)Nc3ccon3)ccc21 — within 0.2 log units, 7.66
- COc1cc(-c2cc(F)cc(Cl)c2)c(F)cc1-n1c(=O)ccc2cc(S(=O)(=O)Nc3ncco3)ccc21 — 0.37 log units higher, 7.85
- COc1cc(NS(=O)(=O)c2ccc3c(ccc(=O)n3-c3cc(F)c(-c4cc(F)cc(Cl)c4)cc3OC)c2)ncn1 — within 0.2 log units, 7.31
- COc1cc(-c2ccc(Cl)c(C)c2)c(F)cc1-n1c(=O)ccc2cc(S(=O)(=O)Nc3ccon3)c(F)cc21 — 0.41 log units higher, 7.89
- COc1cc(-c2ccc(F)c(OC(F)F)c2)c(F)cc1-n1c(=O)ccc2cc(S(=O)(=O)Nc3ccon3)ccc21 — within 0.2 log units, 7.66
- COc1cc(-c2ccc(F)cc2)c(F)cc1-n1c(=O)ccc2cc(S(=O)(=O)Nc3ccon3)ccc21 — 0.57 log units higher, 8.05
- COc1cc(C2CCCC2)c(F)cc1-n1c(=O)ccc2cc(S(=O)(=O)Nc3ccon3)ccc21 — 0.42 log units lower, 7.06
- COc1cc(OC)cc(-c2cc(OC)c(-n3c(=O)ccc4cc(S(=O)(=O)Nc5ncccn5)ccc43)cc2F)c1 — 0.29 log units lower, 7.19
- COc1cc(C#CC(C)(C)OC)c(F)cc1-n1c(=O)ccc2cc(S(=O)(=O)Nc3ccon3)ccc21 — 1.05 log units lower, 6.43
- COc1cc(-c2ccc(-n3c(=O)ccc4cc(S(=O)(=O)Nc5ncccn5)ccc43)c(OC)c2)ccc1Cl — 0.20 log units higher, 7.68
- COc1cc(-c2ccc(C#N)c(C)c2)c(F)cc1-n1c(=O)ccc2cc(S(=O)(=O)Nc3ccon3)ccc21 — 0.44 log units lower, 7.04
- COc1cc(C2CC2)c(Cl)cc1-n1c(=O)ccc2cc(S(=O)(=O)Nc3ccon3)ccc21 — 1.16 log units lower, 6.32
- COc1cc(-c2ccc(-n3c(=O)ccc4cc(S(=O)(=O)Nc5cccnn5)ccc43)c(OC)c2)ccc1C — 0.64 log units lower, 6.84
- COc1cc(-c2cc(Cl)cnc2OC)c(F)cc1-n1c(=O)ccc2cc(S(=O)(=O)Nc3ccon3)ccc21 — within 0.2 log units, 7.62
- COc1cc(Oc2ccc(F)cc2)ccc1-n1c(=O)ccc2cc(S(=O)(=O)Nc3ccon3)ccc21 — within 0.2 log units, 7.31
- COc1cc(-c2cc(Cl)ccc2C)ccc1-n1c(=O)ccc2cc(S(=O)(=O)Nc3ncccn3)ccc21 — 0.44 log units higher, 7.92
- COc1cc(OC)cc(-c2cc(OC)c(-n3c(=O)ccc4cc(S(=O)(=O)Nc5cccnn5)ccc43)cc2F)c1 — 0.40 log units lower, 7.08
- COc1cc(-c2ccc(-n3c(=O)ccc4cc(S(=O)(=O)Nc5ncccn5)ccc43)c(OC)c2)ccc1C — 0.87 log units lower, 6.61
- COc1cc(CC2CCCCC2)c(F)cc1-n1c(=O)ccc2cc(S(=O)(=O)Nc3ncon3)ccc21 — within 0.2 log units, 7.52
- COCc1cc(NS(=O)(=O)c2ccc3c(ccc(=O)n3-c3cc(F)c(Br)cc3OC)c2)ncn1 — 2.14 log units lower, 5.34
- COc1cc(Cl)ccc1-c1cc(OC)c(-n2c(=O)ccc3cc(S(=O)(=O)Nc4ccon4)ccc32)cc1F — 0.32 log units higher, 7.80
- COc1cc(-c2cc(F)cc(C(F)(F)F)c2)ccc1-n1c(=O)ccc2cc(S(=O)(=O)Nc3ncco3)ccc21 — within 0.2 log units, 7.43
- COc1cc(-c2ccccn2)c(F)cc1-n1c(=O)ccc2cc(S(=O)(=O)Nc3ccon3)ccc21 — 1.43 log units lower, 6.05
- Cc1cc(-c2cc(C)c(-n3c(=O)ccc4cc(S(=O)(=O)Nc5ccncn5)ccc43)cc2F)ccc1Cl — 1.32 log units lower, 6.16
- COc1cc(-c2cc(F)cc(C(F)(F)F)c2)ccc1-n1c(=O)ccc2cc(S(=O)(=O)Nc3ccon3)ccc21 — 0.57 log units higher, 8.05

`COc1cc(-c2ccc(Cl)c(C)c2)c(F)cc1-n1c(=O)cnc2cc(S(=O)(=O)Nc3ncccn3)ccc21` was tested, and the pIC50 was 7.64 and 8.22.

Reference: ChEMBL document CHEMBL3886193, “Bicyclic sulfonamide compounds as sodium channel inhibitors” (2015)
